These compounds were tested against T1, human IL-17A (Homo sapiens, UniProt Q16552) (assay: IL-17A AlphaLISA competition assay (block of IL-17A binding to its receptor IL-17RA)). Conditions: mean IC50 (n≥2), block of IL-17A binding to IL-17RA.
T1 construct: purchased R&D Systems 7955-IL/CF
T1 sequence (Q16552 24-155): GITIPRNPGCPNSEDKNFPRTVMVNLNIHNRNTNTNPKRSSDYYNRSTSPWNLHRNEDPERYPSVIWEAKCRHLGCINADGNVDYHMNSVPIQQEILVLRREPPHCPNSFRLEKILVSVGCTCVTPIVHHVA
Procedure, shortened: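 Human recombinant IL-17A (7.5 nM stock) pre-incubated 30 min at RT with compound, then IL-17RA/Fc (5 nM stock) added for 90 min; AlphaLISA read with anti-Fc acceptor beads, biotinylated anti-IL-17A antibody (5 nM) and streptavidin donor beads (3 h, dark). IC50 from 4-parameter logistic fit, normalised to DMSO and 4 μM reference inhibitor; n≥2.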

| Structure (SMILES) | IC50 |
| --- | --- |
| Cc1cnn(C)c1Cc1ccnc(NC(=O)[C@@H](NC(=O)c2ccnn2C(C)C)[C@H]2CC[C@H](C)CC2)c1 [Example 55, N—((S)-2-((4-((1,4-dimethyl-1H-pyrazol-5-yl)methyl)pyridin-2-yl)amino)-1-((1r,4S)-4-methylcyclohexyl)-2-oxoethyl)-1-isopropyl-1H-pyrazole-5-carboxamide] | 183 nM |
| O=C(N[C@H](C(=O)Nc1cc(CN2C[C@@H](C(F)(F)F)NC2=O)ccn1)C1CCC(F)(F)CC1)c1nonc1C1CC1 [Example 8, 4-cyclopropyl-N-((S)-1-(4,4-difluorocyclohexyl)-2-oxo-2-((4-(((S)-2-oxo-4-(trifluoromethyl)imidazolidin-1-yl)methyl)pyridin-2-yl)amino)ethyl)-1,2,5-oxadiazole-3-carboxamide] | 141 nM |
| COCC(c1ccnc(NC(=O)[C@@H](NC(=O)c2nc(Cl)ncc2C)[C@H]2CC[C@H](C)CC2)c1)N1C[C@@H](C(F)(F)F)NC1=O (single isomer, unassigned) [Example 95] | 5490 nM |
| Cc1nonc1C(=O)N[C@H](C(=O)Nc1cc(C(C)N2C[C@@H](C(F)(F)F)NC2=O)ccn1)C1CCC(F)(F)CC1 (single isomer, unassigned) [Example 169, N-((1S)-1-(4,4-Difluorocyclohexyl)-2-oxo-2-((4-(R or S)-(1-((S)-2-oxo-4-(trifluoromethyl)imidazolidin-1-yl)ethyl)pyridin-2-yl)amino)ethyl)-4-methyl-1,2,5-oxadiazole-3-carboxamide] | 79 nM |
| COCC(NC(=O)CCC(F)(F)F)c1ccnc(NC(=O)[C@@H](NC(=O)OC(C)(C)C)C2CCC(F)(F)CC2)c1 (single isomer, unassigned; diastereomer 1) [Example 131] | 680 nM |
| CC(C)n1nccc1C(=O)N[C@H](C(=O)Nc1cc(C[C@H]2C[C@@H](C(F)(F)F)NC2=O)ccn1)C1CCC(F)(F)CC1 [Example 225, N-((S)-1-(4,4-difluorocyclohexyl)-2-oxo-2-((4-(((3S,5S)-2-oxo-5-(trifluoromethyl)pyrrolidin-3-yl)methyl)pyridin-2-yl)amino)ethyl)-1-isopropyl-1H-pyrazole-5-carboxamide] | 105 nM |
| CC(C)(C)OC(=O)N[C@H](C(=O)Nc1cc(CN2C[C@@H](C(F)(F)F)NC2=O)ccn1)C(C1CC1)C1CC1 [Example 104, Tert-butyl ((S)-1,1-dicyclopropyl-3-oxo-3-((4-(((S)-2-oxo-4-(trifluoro-methyl)imidazolidin-1-yl)methyl)pyridin-2-yl)amino)propan-2-yl)carbamate] | 938 nM |
| CC1(C)CN(Cc2ccnc(NC(=O)[C@@H](NC(=O)OC(C)(C)C)[C@H]3CC[C@H](C)CC3)c2)C(=O)N1 [Example 24, Tert-butyl ((S)-2-((4-((4,4-dimethyl-2-oxoimidazolidin-1-yl)methyl)pyridin-2-yl)amino)-1-((1r,4S)-4-methylcyclohexyl)-2-oxoethyl)carbamate] | 1050 nM |
| COCC(NC(=O)CCC(F)(F)F)c1ccnc(NC(=O)C(NC(=O)c2nonc2C)C2CCC(C)CC2)c1 [Example 242, N-((1S)-2-((4-(2-methoxy-1-(4,4,4-trifluorobutanamido)ethyl)pyridin-2-yl)amino)-1-((1r,4S)-4-methylcyclohexyl)-2-oxoethyl)-4-methyl-1,2,5-oxadiazole-3-carboxamide] | 85 nM |
| CC[C@H](c1ccnc(NC(=O)[C@@H](NC(=O)c2nonc2C)[C@H]2CC[C@H](C)CC2)c1)N1C[C@@H](C(F)(F)F)NC1=O [Example 256, 4-methyl-N—((S)-1-((1r,4S)-4-methylcyclohexyl)-2-oxo-2-((4-((R)-1-((S)-2-oxo-4-(trifluoromethyl)imidazolidin-1-yl)propyl)pyridin-2-yl)amino)ethyl)-1,2,5-oxadiazole-3-carboxamide] | 34 nM |
| CCc1conc1C(=O)N[C@H](C(=O)Nc1cc([C@@H](COC)N2C[C@@H](C(F)(F)F)NC2=O)ccn1)C1CCC(Cl)CC1 (stereo partly drawn) [Example 314, N-((1S)-1-(4-chlorocyclohexyl)-2-((4-((S)-2-methoxy-1-((S)-2-oxo-4-(trifluoromethyl)imidazolidin-1-yl)ethyl)pyridin-2-yl)amino)-2-oxoethyl)-4-ethylisoxazole-3-carboxamide] | 58 nM |

Results, then the compound that gave them:

| IC50 | Structure (SMILES) |
| --- | --- |
| 39 nM | CCc1nocc1C(=O)N[C@H](C(=O)Nc1cc([C@@H](COC)N2C[C@@H](C(F)(F)F)NC2=O)ccn1)C1CCC(C(F)(F)F)CC1 (stereo partly drawn) [Example 300, 3-ethyl-N-((1S)-2-((4-((S)-2-methoxy-1-((S)-2-oxo-4-(trifluoromethyl)-imidazolidin-1-yl)ethyl)pyridin-2-yl)amino)-2-oxo-1-(4-(trifluoromethyl)-cyclohexyl)ethyl)isoxazole-4-carboxamide] |
| 25 nM | C[C@H]1CC[C@H]([C@H](NC(=O)c2nonc2C2CC2)C(=O)Nc2cc(CN3C[C@@H](C(F)(F)F)NC3=O)ccn2)CC1 [Example 2, 4-Cyclopropyl-N—((S)-1-((1r,4S)-4-methylcyclohexyl)-2-oxo-2-((4-(((S)-2-oxo-4-(trifluoromethyl)imidazolidin-1-yl)methyl)pyridin-2-yl)amino)ethyl)-1,2,5-oxadiazole-3-carboxamide] |
| 47 nM | CCn1nccc1C(=O)NC(C(=O)Nc1cc(C(COC)NC(=O)CCC(F)(F)F)ccn1)C1CCC(C)CC1 [Example 244, 1-ethyl-N-((1S)-2-((4-(2-methoxy-1-(4,4,4-trifluorobutanamido)ethyl)pyridin-2-yl)amino)-1-((1r,4S)-4-methylcyclohexyl)-2-oxoethyl)-1H-pyrazole-5-carboxamide] |
| 46 nM | CCc1nonc1C(=O)N[C@H](C(=O)Nc1cc([C@@H](COC)N2C[C@@H](C(F)(F)F)NC2=O)ccn1)C1CCC(Cl)CC1 (stereo partly drawn) [Example 316, N-((1S)-1-(4-chlorocyclohexyl)-2-((4-((S)-2-methoxy-1-((S)-2-oxo-4-(trifluoromethyl)imidazolidin-1-yl)ethyl)pyridin-2-yl)amino)-2-oxoethyl)-4-ethyl-1,2,5-oxadiazole-3-carboxamide] |
| 51 nM | CCc1nocc1C(=O)N[C@H](C(=O)Nc1cc([C@@H](COC)N2C[C@@H](C(F)(F)F)NC2=O)ccn1)[C@H]1CCCC(F)(F)C1 (single isomer, unassigned) [Example 307] |
| 119 nM | COCC(c1ccnc(NC(=O)[C@@H](NC(=O)c2ncsc2C)[C@H]2CC[C@H](C)CC2)c1)N1C[C@@H](C(F)(F)F)NC1=O (single isomer, unassigned) [Example 91] |
| 42 nM | COC[C@H](c1ccnc(NC(=O)[C@@H](NC(=O)c2nonc2C)C(C2CC2)C2CC2)c1)N1C[C@@H](C(F)(F)F)NC1=O [Example 226, N—((S)-1,1-Dicyclopropyl-3-((4-((S)-2-methoxy-1-((S)-2-oxo-4-(trifluoro-methyl)imidazolidin-1-yl)ethyl)pyridin-2-yl)amino)-3-oxopropan-2-yl)-4-methyl-1,2,5-oxadiazole-3-carboxamide] |
| 14900 nM | CC(C)(C)OC(=O)N[C@H](C(=O)Nc1cc(CN2C(=O)NC(C)(C)C2=O)ccn1)C1CCC(F)(F)CC1 [Example 27, Tert-butyl (S)-(1-(4,4-difluorocyclohexyl)-2-((4-((4,4-dimethyl-2,5-dioxoimidazolidin-1-yl)methyl)pyridin-2-yl)amino)-2-oxoethyl)carbamate] |

— patent US20260200928A1, “THERAPEUTIC COMPOUNDS” (Sanofi, priority 2022, published 2026)
